Assays:
E. coli 14 = experiment: MIC, liquid medium test tube series dilution test; format: cell-based; details: E. coli 14, 24 hours, 37°C
Outline: (§1)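 Tube dilution, liquid complete medium, 37°C/24 h; MIC = non-turbid tube; units/ml.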

E. coli 183/58 = experiment: MIC, liquid medium test tube series dilution test; format: cell-based; details: E. coli 183/58, 24 hours, 37°C
Outline: as §1

E. coli A 261 = experiment: MIC, liquid medium test tube series dilution test; format: cell-based; details: E. coli A 261, 24 hours, 37°C
Outline: as §1

E. coli C 165 = experiment: MIC, liquid medium test tube series dilution test; format: cell-based; details: E. coli C 165, 24 hours, 37°C
Outline: as §1

Klebsiella 63 = experiment: MIC, liquid medium test tube series dilution test; format: cell-based; details: Klebsiella 63, 24 hours, 37°C
Outline: as §1

[1] = tested on: Streptoc. faec. ATCC 9790; experiment: MIC, liquid medium test tube series dilution test; format: cell-based; details: Strep. faec. (Enterococcus) ATCC 9790, 24 hours, 37°C
Outline: as §1

Proteus vulg. 1017 = experiment: MIC, liquid medium test tube series dilution test; format: cell-based, Proteus vulgaris; details: Proteus vulg. 1017, 24 hours, 37°C
Outline: as §1

Proteus vulg. 3400 = experiment: MIC, liquid medium test tube series dilution test; format: cell-based, Proteus vulgaris; details: Proteus vulg. 3400, 24 hours, 37°C
Outline: as §1

Psdm. aerug. Bonn = experiment: MIC, liquid medium test tube series dilution test; format: cell-based, Pseudomonas aerug.; details: 24 hours, 37°C
Outline: as §1

Psdm. aerug. Walter = experiment: MIC, liquid medium test tube series dilution test; format: cell-based, Pseudomonas aerug.; details: 24 hours, 37°C
Outline: as §1

Staph. aureus 133 [2] = experiment: MIC, liquid medium test tube series dilution test; format: cell-based, Staphylococcus aureus; details: Staph. aureus 133, 24 hours, 37°C
Outline: as §1

Staph. aureus 1777 E = experiment: MIC, liquid medium test tube series dilution test; format: cell-based, Staphylococcus aureus; details: 24 hours, 37°C
Outline: as §1

Staph. aureus 133 [3] = experiment: Surviving mice after intraperitoneal infection and subcutaneous therapy; format: in vivo, white mice, CF1 strain; details: 2 × 200 units/mouse s.c.
Protocol: The experiments on animals (see Table 3) were carried out with white mice of the CF1 strain. The infection took place intraperitoneally with the particular bacterium indicated.

Klebsiella K 10 = experiment: MIC, liquid medium test tube series dilution test; format: cell-based; details: Klebsiella K 10, 24 hours, 37°C
Outline: as §1

MIC (E. coli 14) | MIC (E. coli 183/58) | MIC (E. coli A 261) | MIC (E. coli C 165) | MIC (Klebsiella 63) | MIC [1] | MIC (Proteus vulg. 1017) | MIC (Proteus vulg. 3400) | MIC (Psdm. aerug. Bonn) | MIC (Psdm. aerug. Walter) | MIC (Staph. aureus 133 [2]) | MIC (Staph. aureus 1777 E) | MIC (Klebsiella K 10) | Structure (SMILES) | further results
0.78 units/ml | < 0.78 units/ml | 50 units/ml | 1.56 units/ml | 6.25 units/ml | 50 units/ml | 1.56 units/ml | 6.25 units/ml | 6.25 units/ml | 12.5 units/ml | < 0.78 units/ml | 12.5 units/ml | 6.25 units/ml | CN(C(=O)N[C@@H](C(=O)N[C@@H]1C(=O)N2[C@@H]1SC(C)(C)[C@@H]2C(=O)O)c1ccccc1)C(=O)c1ccccc1Br [Example 128, Sodium D(-)-α-(3-[2-bromobenzoyl]-3-methyl-ureido)-benzyl penicillin] | –
0.78 units/ml | 1.56 units/ml | 50 units/ml | 1.56 units/ml | 6.25 units/ml | 50 units/ml | 3.12 units/ml | 6.25 units/ml | 6.25 units/ml | 12.5 units/ml | < 0.78 units/ml | 6.25 units/ml | 6.25 units/ml | Cc1ccccc1C(=O)N(C)C(=O)N[C@@H](C(=O)N[C@@H]1C(=O)N2[C@@H]1SC(C)(C)[C@@H]2C(=O)O)c1ccccc1 [Example 129, Sodium D(-)-α-(3-[2-methylbenzoyl]-3-methyl-ureido)-benzylpenicillin] | –
0.8 units/ml | < 0.8 units/ml | 20-100 units/ml | < 0.8 units/ml | 4-20 units/ml | 4-20 units/ml | 0.8-4 units/ml | 0.8-4 units/ml | 0.8-4 units/ml | 0.8-4 units/ml | < 0.8 units/ml | 20-100 units/ml | 0.8-4 units/ml | CN(C(=O)C=Cc1cccc([N+](=O)[O-])c1)C(=O)N[C@@H](C(=O)N[C@@H]1C(=O)N2[C@@H]1SC(C)(C)[C@@H]2C(=O)O)c1ccccc1 [Example 131, Sodium D(-)-α-(3-m-nitrocinnamoyl-3-methyl-ureido)-benzylpenicillin] | –
0.8 units/ml | < 0.8 units/ml | > 400 units/ml | 0.8-4 units/ml | 20-100 units/ml | 4-20 units/ml | 4-20 units/ml | 0.8-4 units/ml | 4-20 units/ml | 4-20 units/ml | < 0.8 units/ml | 20-100 units/ml | 4-20 units/ml | CN(C(=O)Cc1ccc([N+](=O)[O-])cc1)C(=O)N[C@@H](C(=O)N[C@@H]1C(=O)N2[C@@H]1SC(C)(C)[C@@H]2C(=O)O)c1ccccc1 [Example 132, Sodium D(-)-α-(3-[4-nitrophenacetyl]-3-methyl-ureido)-benzylpenicillin] | –
3.1 units/ml | 25 units/ml | > 400 units/ml | 25 units/ml | 200 units/ml | 100 units/ml | 12.5 units/ml | 50 units/ml | 100 units/ml | 50 units/ml | 3.1 units/ml | 200 units/ml | 50 units/ml | CC1(C)S[C@@H]2[C@H](NC(=O)[C@H](NC(=O)N3CCCCC3=O)c3ccccc3)C(=O)N2[C@H]1C(=O)O [Example 134, Sodium D(-)-α-(1-piperidin-2-on-1-yl-carbonylamino)-benzylpenicillin] | –
12.5 units/ml | 25 units/ml | 400 units/ml | 50 units/ml | 400 units/ml | 200 units/ml | 25 units/ml | 100 units/ml | 400 units/ml | 100 units/ml | < 0.8 units/ml | 100 units/ml | 100 units/ml | CN(C(=O)NC(C(=O)N[C@@H]1C(=O)N2[C@@H]1SC(C)(C)[C@@H]2C(=O)O)c1cccs1)C(=O)c1ccccc1Cl (stereo partly drawn) [Example 135, Sodium α-(3-o-chlorobenzoyl-3-methyl-ureido)-α-thienyl(2)-methylpenicillin] | –
6.25 units/ml | 12.5 units/ml | 200 units/ml | 25 units/ml | 50 units/ml | 50 units/ml | 25 units/ml | 100 units/ml | 25 units/ml | 100 units/ml | < 0.8 units/ml | 12.5 units/ml | 50 units/ml | CCN(C(=O)N[C@@H](C(=O)N[C@@H]1C(=O)N2[C@@H]1SC(C)(C)[C@@H]2C(=O)O)c1ccccc1)C(=O)c1ccccc1Cl [Example 138, Sodium D(-)-α-(3-o-chlorobenzoyl-3-ethyl-ureido)-benzylpenicillin] | –
– | – | – | – | – | – | – | – | – | – | – | – | 50 units/ml | CC1(C)S[C@@H]2[C@H](NC(=O)[C@H](NC(=O)N3CCNC3=O)c3ccccc3)C(=O)N2[C@H]1C(=O)O [Example 144 A, D(-)-α-(Imidazolidin-2-on-1-yl-carbonylamino)-benzyl-penicillin] | MIC (E. coli 14; listed as 144): 1.56 units/ml; MIC (E. coli 183/58; listed as 144): 50 units/ml; MIC (E. coli A 261; listed as 144): 400 units/ml; MIC (E. coli C 165; listed as 144): 6.25 units/ml; MIC (Klebsiella 63; listed as 144): 50 units/ml; MIC ([1]; listed as 144): 25 units/ml; MIC (Proteus vulg. 1017; listed as 144): 12 units/ml; MIC (Proteus vulg. 3400; listed as 144): 25 units/ml; MIC (Psdm. aerug. Bonn; listed as 144): 6.25 units/ml; MIC (Psdm. aerug. Walter; listed as 144): 12.5 units/ml; MIC (Staph. aureus 133 [2]; listed as 144): < 0.8 units/ml; MIC (Staph. aureus 1777 E; listed as 144): 200 units/ml
12.5 units/ml | 100 units/ml | > 400 units/ml | 50 units/ml | 100 units/ml | 50 units/ml | 50 units/ml | 50 units/ml | 25 units/ml | 200 units/ml | < 0.8 units/ml | 100 units/ml | 200 units/ml | CC1(C)S[C@@H]2[C@H](NC(=O)[C@H](NC(=O)N3CCNC3=S)c3ccccc3)C(=O)N2[C@H]1C(=O)O [Example 147 A] | MIC (Proteus vulg. 3400; listed as 147 A): 200 units/ml

Structure (SMILES) | MIC (E. coli 14) | MIC (E. coli 183/58) | MIC (E. coli A 261) | MIC (E. coli C 165) | MIC (Klebsiella 63) | MIC [1] | MIC (Proteus vulg. 1017) | MIC (Proteus vulg. 3400) | MIC (Psdm. aerug. Bonn) | MIC (Psdm. aerug. Walter) | MIC (Staph. aureus 133 [2]) | MIC (Staph. aureus 1777 E) | MIC (Klebsiella K 10) | further results
CN(C(=O)N[C@@H](C(=O)N[C@@H]1C(=O)N2[C@@H]1SC(C)(C)[C@@H]2C(=O)O)c1ccccc1)C(=O)C1CC=CCC1 (single isomer, unassigned) [Example 65, Sodium D(-)-α-(3-(1,2,5,6)-tetrahydrobenzoyl-3-methyl-ureido)benzylpenicillin] | < 0.78 units/ml | 1.56 units/ml | 400 units/ml | 3.12 units/ml | 12.5 units/ml | 50 units/ml | 3.12 units/ml | 6.25 units/ml | 12.5 units/ml | 12.5 units/ml | < 0.78 units/ml | 50 units/ml | – | Number of surviving mice (Staph. aureus 133 [3]; 1 day): 90%; Number of surviving mice (Staph. aureus 133 [3]; 2 days): 80%; Number of surviving mice (Staph. aureus 133 [3]; 3 days): 70%; Number of surviving mice (Staph. aureus 133 [3]; 5 days): 70%

Source: patent US3974140A, “Ureidoacetamido-penicillins” (Bayer Aktiengesellschaft, priority 1970, dated 1976)
